Our source for the IC50 values is patent US20250059220A1, “SUBSTITUTED BENZOTHIOPHENE DERIVATIVES AND METHODS OF USE THEREOF” (Merck Sharp & Dohme LLC, priority 2021, published 2025).

In one experiment the target is human PTPN1 (1-435) (Homo sapiens (Human), UniProt P18031). In words: Human PTPN1 Biochemical Assay. The following applies: DiFMUP substrate, read-out: PTP1B IC50. In a few lines:
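Read-out is DiFMUP hydrolysis fluorescence (360 nm excitation, 460 nm emission) after 1 h at room temperature, following 30 min enzyme–compound preincubation.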

In a further experiment the target is human PTPN2 (1-387) (Homo sapiens (Human), UniProt P17706). In words: Human PTPN2 Biochemical Assay. The following applies: DiFMUP substrate. In a few lines:
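Fluorogenic DiFMUP hydrolysis (1 h, room temperature, read ex 360/em 460 nm) after 30 min compound preincubation with PTPN2 residues 1-387, in 50 mM Tris pH 7.4, 150 mM NaCl, 0.01% Tween20, 0.5 mM DTT. Effects scaled between buffer and enzyme controls, 4-parameter fit gives EC50.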

Structures are written as SMILES.

As a reminder, the IC50 is the concentration that gives 50% inhibition.

human PTPN2 (1-387), sequence (P17706 other isoform, or with tags, fused parts or gaps): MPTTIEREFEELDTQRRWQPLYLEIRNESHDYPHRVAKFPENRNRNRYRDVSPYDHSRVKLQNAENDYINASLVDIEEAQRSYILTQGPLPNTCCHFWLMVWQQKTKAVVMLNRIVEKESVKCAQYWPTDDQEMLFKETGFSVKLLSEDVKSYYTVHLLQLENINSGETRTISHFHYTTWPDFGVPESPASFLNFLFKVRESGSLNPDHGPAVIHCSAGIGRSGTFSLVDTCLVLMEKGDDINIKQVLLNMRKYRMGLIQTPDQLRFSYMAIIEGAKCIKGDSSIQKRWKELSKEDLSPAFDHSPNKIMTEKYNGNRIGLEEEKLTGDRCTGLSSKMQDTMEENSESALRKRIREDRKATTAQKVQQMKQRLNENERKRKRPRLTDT
human PTPN1 (1-435), sequence (P18031 whole entry): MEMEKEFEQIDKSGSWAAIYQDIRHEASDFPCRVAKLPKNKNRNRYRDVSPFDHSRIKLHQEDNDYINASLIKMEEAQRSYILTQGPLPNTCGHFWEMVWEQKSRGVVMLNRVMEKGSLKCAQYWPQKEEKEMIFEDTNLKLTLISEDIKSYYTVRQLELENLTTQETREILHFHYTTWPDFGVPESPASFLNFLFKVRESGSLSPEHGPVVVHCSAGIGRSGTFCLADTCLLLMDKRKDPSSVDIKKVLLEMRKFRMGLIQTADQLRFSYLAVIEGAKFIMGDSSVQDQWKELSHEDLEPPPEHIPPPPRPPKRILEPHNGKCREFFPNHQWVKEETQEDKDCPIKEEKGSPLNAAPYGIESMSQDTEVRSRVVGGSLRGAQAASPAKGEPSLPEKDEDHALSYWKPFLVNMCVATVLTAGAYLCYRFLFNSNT

For the molecule `CS(=N)(=O)c1cc(OCCCC(F)(F)F)c2sc(C(F)(F)P(=O)(O)O)c(Br)c2c1` (stereo not drawn) [Compound 413], the IC50 stood at 4080 nM on human PTPN1 (1-435) and 7400 nM against human PTPN2 (1-387).

In the case of `CS(=N)(=O)c1cc(OCCCC(F)(F)F)c2sc(C(F)(F)P(=O)(O)O)c(Br)c2c1` (stereo not drawn) [Compound 414], the IC50 amounted to 3590 nM on human PTPN1 (1-435) and 6700 nM at human PTPN2 (1-387).

Consider `NC(=O)c1cc(-c2cc[nH]n2)c2sc(C(F)(F)P(=O)(O)O)c(Br)c2c1` [Compound 415, ((3-bromo-5-carbamoyl-7-(1H-pyrazol-3-yl)benzo[b]thiophen-2-yl)difluoromethyl)phosphonic acid], for which the results for the IC50 on human PTPN1 (1-435) and against human PTPN2 (1-387) were 3930 nM and 3840 nM, respectively.

As for `O=P(O)(O)C(F)(F)c1sc2c(OCCCC(F)(F)F)cc(-c3c[nH]cn3)cc2c1Br` [Compound 416, ((3-bromo-5-(1H-imidazol-4-yl)-7-(4,4,4-trifluorobutoxy)benzo[b]thiophen-2-yl)difluoromethyl)phosphonic acid], the IC50 turned out to be 137 nM at human PTPN1 (1-435) and 92 nM at human PTPN2 (1-387).

For `O=P(O)(O)C(F)(F)c1sc2c(OCCCC(F)(F)F)cc(-c3nnc(C4CC4)[nH]3)cc2c1Br` [Compound 418], the IC50 is 2.5 nM at human PTPN1 (1-435) and 2.7 nM on human PTPN2 (1-387).

As for `O=P(O)(O)C(F)(F)c1sc2c(OCCCC(F)(F)F)cc(-c3nnc(C(F)(F)F)[nH]3)cc2c1Br` [Compound 420, ((3-bromo-7-(4,4,4-trifluorobutoxy)-5-(5-(trifluoromethyl)-4H-1,2,4-triazol-3-yl)benzo[b]thiophen-2-yl)difluoromethyl)phosphonic acid], the IC50 at human PTPN1 (1-435) is 2.7 nM; at human PTPN2 (1-387), 2.85 nM.

As for `CS(=O)(=O)CCCOc1cc(C(N)=O)cc2c(C#N)c(C(F)(F)P(=O)(O)O)sc12` [Compound 421, ((5-carbamoyl-3-cyano-7-(3-(methylsulfonyl)propoxy)benzo[b]thiophen-2-yl)difluoromethyl)phosphonic acid], the IC50 at human PTPN1 (1-435) was determined as 11.9 nM; on human PTPN2 (1-387), 4.87 nM.

Turning to `CNC(=O)c1cc(OCCCS(C)(=O)=O)c2sc(C(F)(F)P(=O)(O)O)c(C#N)c2c1` [Compound 422], the IC50 was 11.7 nM on human PTPN1 (1-435) and 7.84 nM on human PTPN2 (1-387).

In the case of `N#Cc1c(C(F)(F)P(=O)(O)O)sc2c(OCCCS(N)(=O)=O)cc(C(N)=O)cc12` [Compound 423], the IC50 on human PTPN1 (1-435) came out at 11.5 nM; at human PTPN2 (1-387), 9.7 nM.

Turning to `N#Cc1c(C(F)(F)P(=O)(O)O)sc2c(OCCCC(F)(F)F)cc(C(N)=O)cc12` [Compound 424], the figures for the IC50 on human PTPN1 (1-435) and against human PTPN2 (1-387) were 19.7 nM and 6.69 nM, respectively.

Turning to `N#Cc1c(C(F)(F)P(=O)(O)O)sc2c(OCC3CC3(F)F)cc(C(N)=O)cc12` (stereo not drawn) [Compound 425], the IC50 at human PTPN1 (1-435) was found to be 30.8 nM; against human PTPN2 (1-387) it was 22.8 nM.

For the molecule `N#Cc1c(C(F)(F)P(=O)(O)O)sc2c(OCC3CC3(F)F)cc(C(N)=O)cc12` (stereo not drawn) [Compound 426], the IC50 at human PTPN1 (1-435) was determined as 13.7 nM; at human PTPN2 (1-387) it was 10.2 nM.

For the molecule `CNC(=O)c1cc(OCCCS(N)(=O)=O)c2sc(C(F)(F)P(=O)(O)O)c(C#N)c2c1` [Compound 427], the IC50 on human PTPN1 (1-435) stood at 5.4 nM; on human PTPN2 (1-387) it was 3.63 nM.

On to `CS(=O)(=O)CCCOc1cc(-c2nc[nH]n2)cc2c(C#N)c(C(F)(F)P(=O)(O)O)sc12` [Compound 428], for which the IC50 at human PTPN1 (1-435) and at human PTPN2 (1-387) was 2.5 nM each time.

Take `Cc1c(C(F)(F)P(=O)(O)O)sc2c(OCCCS(C)(=O)=O)cc(C(N)=O)cc12` [Compound 429, ((5-carbamoyl-3-methyl-7-(3-(methylsulfonyl)propoxy)benzo[b]thiophen-2-yl)difluoromethyl)phosphonic acid]: the IC50 on human PTPN1 (1-435) stood at 82.1 nM; at human PTPN2 (1-387) it was 87.2 nM.

On to `CNC(=O)c1cc(OCCCS(C)(=O)=O)c2sc(C(F)(F)P(=O)(O)O)c(C)c2c1` [Compound 430], for which the IC50 came out at 61.7 nM at human PTPN1 (1-435) and 109 nM at human PTPN2 (1-387).

On to `Cc1c(C(F)(F)P(=O)(O)O)sc2c(OCCCC(F)(F)F)cc(C(N)=O)cc12` [Compound 431], for which the IC50 on human PTPN1 (1-435) came to 99.3 nM; against human PTPN2 (1-387), 119 nM.

With `Cc1c(C(F)(F)P(=O)(O)O)sc2c(OCCCS(N)(=O)=O)cc(C(N)=O)cc12` [Compound 432], the values for the IC50 on human PTPN1 (1-435) and on human PTPN2 (1-387) were 117 nM and 114 nM, respectively.

On to `CNC(=O)c1cc(OCCCS(N)(=O)=O)c2sc(C(F)(F)P(=O)(O)O)c(C)c2c1` [Compound 433], for which the IC50 at human PTPN1 (1-435) was found to be 29.3 nM; at human PTPN2 (1-387), 33 nM.

Take `Cc1c(C(F)(F)P(=O)(O)O)sc2c(OCC3CC3(F)F)cc(C(N)=O)cc12` (stereo not drawn) [Compound 434]: the IC50 at human PTPN1 (1-435) was 482 nM; at human PTPN2 (1-387), 438 nM.

Take `Cc1c(C(F)(F)P(=O)(O)O)sc2c(OCC3CC3(F)F)cc(C(N)=O)cc12` (stereo not drawn) [Compound 435]: the IC50 on human PTPN1 (1-435) was found to be 207 nM; at human PTPN2 (1-387), 130 nM.

On to `Cc1c(C(F)(F)P(=O)(O)O)sc2c(OCCCS(C)(=O)=O)cc(-c3nc[nH]n3)cc12` [Compound 436], for which the IC50 at human PTPN1 (1-435) stood at 6.7 nM; against human PTPN2 (1-387), 6.6 nM.

For the molecule `Cc1c(C(F)(F)P(=O)(O)O)sc2c(OCCCC(C)(C)O)cc(C(N)=O)cc12` [Compound 437], the values for the IC50 at human PTPN1 (1-435) and at human PTPN2 (1-387) were 153 nM and 109 nM, respectively.

For the molecule `Cc1c(C(F)(F)P(=O)(O)O)sc2c(OCc3ccc(S(C)(=O)=O)cc3)cc(C(N)=O)cc12` [Compound 438], the figures for the IC50 at human PTPN1 (1-435) and against human PTPN2 (1-387) were 27.4 nM and 21.5 nM, respectively.

With `CS(=O)(=O)CCCOc1cc(-c2nc[nH]n2)cc2c(Br)c(C(F)(F)P(=O)(O)O)sc12` [Compound 439, ((3-bromo-7-(3-(methylsulfonyl)propoxy)-5-(1H-1,2,4-triazol-3-yl)benzo[b]thiophen-2-yl)difluoromethyl)phosphonic acid], the IC50 on human PTPN1 (1-435) and against human PTPN2 (1-387) was 2.5 nM in each case.

`NS(=O)(=O)CCCOc1cc(-c2nc[nH]n2)cc2c(Br)c(C(F)(F)P(=O)(O)O)sc12` [Compound 440]: the IC50 on human PTPN1 (1-435) and against human PTPN2 (1-387) was 2.5 nM each time.

Take `O=P(O)(O)C(F)(F)c1sc2c(OCC3CC3(F)F)cc(-c3nc[nH]n3)cc2c1Br` (stereo not drawn) [Compound 441]: the IC50 on human PTPN1 (1-435) and at human PTPN2 (1-387) was 2.5 nM in each case.

For the molecule `O=P(O)(O)C(F)(F)c1sc2c(OCC3CC3(F)F)cc(-c3nc[nH]n3)cc2c1Br` (stereo not drawn) [Compound 442], the figures for the IC50 at human PTPN1 (1-435) and at human PTPN2 (1-387) were 5 nM and 5.56 nM, respectively.

Regarding `Cc1c(C(F)(F)P(=O)(O)O)sc2c(OCCCS(N)(=O)=O)cc(-c3nc[nH]n3)cc12` [Compound 443], the figures for the IC50 at human PTPN1 (1-435) and against human PTPN2 (1-387) were 5.1 nM and 6.17 nM, respectively.

On to `CS(=O)(=O)c1ccc(COc2cc(-c3nc[nH]n3)cc3c(Br)c(C(F)(F)P(=O)(O)O)sc23)cc1` [Compound 444], for which the half-inhibitory concentration (IC50) on human PTPN1 (1-435) and on human PTPN2 (1-387) was under 2.5 nM each time.

As for `CS(=O)(=O)CCCOc1cc(C(N)=O)cc2c(C(F)(F)F)c(C(F)(F)P(=O)(O)O)sc12` [Compound 445, ((5-carbamoyl-7-(3-(methylsulfonyl)propoxy)-3-(trifluoromethyl)benzo[b]thiophen-2-yl)difluoromethyl)phosphonic acid], the IC50 came to 12.7 nM on human PTPN1 (1-435) and 15.5 nM against human PTPN2 (1-387).

For the molecule `NC(=O)c1cc(OCCCS(N)(=O)=O)c2sc(C(F)(F)P(=O)(O)O)c(C(F)(F)F)c2c1` [Compound 446], the values for the IC50 at human PTPN1 (1-435) and against human PTPN2 (1-387) were 18.2 nM and 14.7 nM, respectively.

With `CCCC(CO)Oc1cc(C(N)=O)cc2c(Br)c(C(F)(F)P(=O)(O)O)sc12` (stereo not drawn) [Compound 447, ((3-bromo-5-carbamoyl-7-((1-hydroxypentan-2-yl)oxy)benzo[b]thiophen-2-yl)difluoromethyl)phosphonic acid], the IC50 on human PTPN1 (1-435) amounted to 231 nM; on human PTPN2 (1-387), 500 nM.

In the case of `N#CCc1cc(OCCCC(F)(F)F)c2sc(C(F)(F)P(=O)(O)O)c(Br)c2c1` [Compound 448, ((3-bromo-5-(cyanomethyl)-7-(4,4,4-trifluorobutoxy)benzo[b]thiophen-2-yl)difluoromethyl)phosphonic acid], the results for the IC50 on human PTPN1 (1-435) and against human PTPN2 (1-387) were 230 nM and 316 nM, respectively.

In the case of `CC(=O)NCc1cc(OCCCC(F)(F)F)c2sc(C(F)(F)P(=O)(O)O)c(Br)c2c1` [Compound 449, ((5-(acetamidomethyl)-3-bromo-7-(4,4,4-trifluorobutoxy)benzo[b]thiophen-2-yl)difluoromethyl)phosphonic acid], the IC50 on human PTPN1 (1-435) stood at 812 nM; on human PTPN2 (1-387), 1190 nM.

Regarding `CS(=O)(=O)NCc1cc(OCCCC(F)(F)F)c2sc(C(F)(F)P(=O)(O)O)c(Br)c2c1` [Compound 450, ((3-bromo-5-(methylsulfonamidomethyl)-7-(4,4,4-trifluorobutoxy)benzo[b]thiophen-2-yl)difluoromethyl)phosphonic acid], the IC50 came to 175 nM on human PTPN1 (1-435) and 227 nM at human PTPN2 (1-387).

Turning to `Cc1c(C(F)(F)P(=O)(O)O)sc2c(OCCCS(C)(=O)=O)cc(-c3c[nH]nn3)cc12` [Compound 451, (difluoro(3-methyl-7-(3-(methylsulfonyl)propoxy)-5-(1H-1,2,3-triazol-4-yl)benzo[b]thiophen-2-yl)methyl)phosphonic acid], the IC50 at human PTPN1 (1-435) stood at 16.5 nM; at human PTPN2 (1-387) it was 14.6 nM.

For the molecule `Cc1ncc(-c2cc(OCCCC(F)(F)F)c3sc(C(F)(F)P(=O)(O)O)c(Br)c3c2)[nH]1` [Compound 452, ((3-bromo-5-(2-methyl-1H-imidazol-5-yl)-7-(4,4,4-trifluorobutoxy)benzo[b]thiophen-2-yl)difluoromethyl)phosphonic acid], the IC50 turned out to be 71.9 nM at human PTPN1 (1-435) and 63.9 nM against human PTPN2 (1-387).

In the case of `CS(=O)(=O)CCCOc1cc(C(N)=O)cc2cc(C(F)(F)P(=O)(O)O)sc12` [Compound 453, ammonium ((5-carbamoyl-7-(3-(methylsulfonyl)propoxy)benzo[b]thiophen-2-yl)difluoromethyl)phosphonate], the IC50 on human PTPN1 (1-435) amounted to 7860 nM; against human PTPN2 (1-387), 9580 nM.
